Read-outs that look alike come from different tables or passages of the source.
Key:
ALKBH3 [1] = target: T1, ALKBH3 (Homo sapiens, UniProt Q96Q83); test: Inhibition constant; assay type: biochemical; details: versus αKG, 37 °C
T1 sequence (Q96Q83 1-286): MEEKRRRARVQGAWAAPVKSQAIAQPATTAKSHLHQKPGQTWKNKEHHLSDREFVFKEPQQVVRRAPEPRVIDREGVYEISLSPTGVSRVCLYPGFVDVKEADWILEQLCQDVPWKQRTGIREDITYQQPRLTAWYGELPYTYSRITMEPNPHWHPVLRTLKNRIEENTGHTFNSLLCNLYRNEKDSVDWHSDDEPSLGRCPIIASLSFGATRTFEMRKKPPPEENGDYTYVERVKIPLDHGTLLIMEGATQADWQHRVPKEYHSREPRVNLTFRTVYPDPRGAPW

AlkB [2] = target: T2, AlkB (Escherichia coli, UniProt P05050); test: Inhibition constant; assay type: biochemical
T2 sequence (P05050 whole entry): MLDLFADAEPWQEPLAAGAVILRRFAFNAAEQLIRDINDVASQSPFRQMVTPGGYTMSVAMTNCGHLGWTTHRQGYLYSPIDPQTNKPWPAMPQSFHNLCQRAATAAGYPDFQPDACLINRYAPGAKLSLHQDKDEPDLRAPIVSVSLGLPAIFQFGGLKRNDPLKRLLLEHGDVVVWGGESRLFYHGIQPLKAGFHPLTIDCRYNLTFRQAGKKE

ALKBH2 [3] = target: T3, ALKBH2 (Homo sapiens, UniProt Q6NS38); test: Inhibition of ALKBH2 repair at tumor-relevant 2HG:αKG ratios; assay type: biochemical; details: L-2HG:αKG = 28:1, αKG 100 µM; range over all substrates
T3 sequence (Q6NS38 1-261): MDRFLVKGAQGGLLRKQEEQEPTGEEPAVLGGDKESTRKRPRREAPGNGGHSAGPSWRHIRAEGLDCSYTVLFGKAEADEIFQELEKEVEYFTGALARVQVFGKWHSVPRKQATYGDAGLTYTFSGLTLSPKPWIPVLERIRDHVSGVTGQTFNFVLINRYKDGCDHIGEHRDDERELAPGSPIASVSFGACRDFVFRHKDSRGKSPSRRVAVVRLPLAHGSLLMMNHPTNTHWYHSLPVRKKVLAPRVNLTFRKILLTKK

ALKBH3 [4] = target: T1, ALKBH3; test: Inhibition of ALKBH3 repair at tumor-relevant 2HG:αKG ratios; assay type: biochemical; details: L-2HG:αKG = 28:1, αKG 100 µM; range over all substrates
ALKBH2 and ALKBH3 = assay type: biochemical, human; details: L-2HG:αKG = 28:1, αKG 100 µM; range over both enzymes and all substrates
ALKBH2 [5] = target: T3, ALKBH2; test: Inhibition constant; assay type: biochemical; details: for Ki: versus αKG, 37 °C
ALKBH2 [6] = target: T3, ALKBH2; details: 37 °C
ALKBH3 [7] = target: T1, ALKBH3; details: 37 °C
AlkB [8] = target: T2, AlkB; details: 37 °C
[9] = AlkB, ds-m1A, versus αKG, 37 °C
[10] = AlkB, ds-m3C, versus αKG, 37 °C
[11] = AlkB, ss-m1A, versus αKG, 37 °C
[12] = AlkB, ss-m3C, versus αKG, 37 °C

Q: What does the source list for `O=C(O)CC[C@@H](O)C(=O)O` [D-2HG, D-2-hydroxyglutarate]?
A: Ki (ALKBH3 [1]; ALKBH3, ss-m1A): 545 ± 77 µM; Ki (ALKBH3 [1]; ALKBH3, ss-m3C): 490 ± 46 µM; Ki (AlkB [2]; [9]): 529 ± 126 µM; Ki (AlkB [2]; [10]): 230 ± 55 µM; Ki (AlkB [2]; [11]): 571 ± 166 µM; Ki (AlkB [2]; [12]): 447 ± 113 µM

Q: What does the source list for `O=C(O)CC[C@H](O)C(=O)O` [L-2HG, L-2-hydroxyglutarate]?
A: Ki (ALKBH3 [1]; ALKBH3, ss-m1A): 185 ± 23 µM; Ki (ALKBH3 [1]; ALKBH3, ss-m3C): 228 ± 16 µM; Ki (AlkB [2]; [9]): 598 ± 173 µM; Ki (AlkB [2]; [10]): 308 ± 108 µM; Ki (AlkB [2]; [11]): 337 ± 99 µM; Ki (AlkB [2]; [12]): 276 ± 111 µM; inhibition of ALKBH2 activity (ALKBH2 [3]): 48–58%; inhibition of ALKBH3 activity (ALKBH3 [4]): 31–40%; inhibition of ALKBH2 and ALKBH3 repair activities (ALKBH2 and ALKBH3): 31–58%

Q: Which results are given for `O=C(O)CNC(=O)C(=O)O` [N-OG, N-oxalylglycine, reference compound]?
A: Ki (ALKBH2 [5]; ALKBH2, ds-m1A): 16 ± 5 µM; Ki (ALKBH2 [5]; ALKBH2, ds-m3C): 7 ± 2 µM; Ki (ALKBH2 [5]; ALKBH2, ss-m1A): 30 ± 7 µM; Ki (ALKBH2 [5]; ALKBH2, ss-m3C): 40 ± 7 µM; potency relative to D- and L-2HG (ALKBH2 [5]; from Ki values, all repair reactions): about 10 times; Ki (ALKBH3 [1]; Ki, ALKBH3, ss-m1A): 27 ± 4 µM; Ki (ALKBH3 [1]; Ki, ALKBH3, ss-m3C): 37 ± 3 µM; Ki (AlkB [2]): 2 ± 1.3 µM; Ki (AlkB [2]; Ki, AlkB, ds-m3C, versus αKG, 37 °C): 0.2 µM; Ki (AlkB [2]; Ki, AlkB, ss-m1A, versus αKG, 37 °C): 0.4 ± 0.1 µM; Ki (AlkB [2]; Ki, AlkB, ss-m3C, versus αKG, 37 °C): 0.4 ± 0.1 µM

Q: How did the Km (ALKBH2 [6]; ALKBH2, ds-m1A) turn out when `O=C(O)CCC(=O)C(=O)O` [αKG, α-ketoglutarate] was run?
A: 7.3 ± 0.9 µM

Q: And the kcat (ALKBH2 [6]; ALKBH2, ds-m1A)?
A: 0.0417 ± 0.0017 s⁻¹

Q: What about the Km (ALKBH2 [6]; ALKBH2, ds-m3C) of the same compound?
A: 1.9 ± 0.4 µM

Q: And the kcat (ALKBH2 [6]; ALKBH2, ds-m3C)?
A: 0.0433 ± 0.0017 s⁻¹

Q: And the Km (ALKBH2 [6]; ALKBH2, ss-m1A)?
A: 4.1 ± 0.9 µM

Q: And the kcat (ALKBH2 [6]; ALKBH2, ss-m1A)?
A: 0.0183 ± 0.0017 s⁻¹

Q: And the Km (ALKBH2 [6]; ALKBH2, ss-m3C)?
A: 1.4 ± 0.2 µM

Q: And the kcat (ALKBH2 [6]; ALKBH2, ss-m3C)?
A: 0.0283 ± 0.0017 s⁻¹

Q: And the Km (ALKBH3 [7]; ALKBH3, ss-m1A)?
A: 2.3 ± 0.1 µM

Q: And the kcat (ALKBH3 [7]; ALKBH3, ss-m1A)?
A: 0.02 ± 0 s⁻¹

Q: And the Km (ALKBH3 [7]; ALKBH3, ss-m3C)?
A: 1.9 ± 0.4 µM

Q: And the kcat (ALKBH3 [7]; ALKBH3, ss-m3C)?
A: 0.0283 ± 0 s⁻¹

Q: And the Km (AlkB [8]; ds-m1A)?
A: 12.7 ± 1.3 µM

Q: What about the kcat (AlkB [8]; ds-m1A) of the same compound?
A: 0.08 ± 0.0033 s⁻¹

Q: What about the Km (AlkB [8]; ds-m3C) of the same compound?
A: 10.8 ± 1.9 µM

Q: And the kcat (AlkB [8]; ds-m3C)?
A: 0.137 ± 0.0067 s⁻¹

Q: What about the Km (AlkB [8]; ss-m1A) of the same compound?
A: 7.1 ± 1.1 µM

Q: And the kcat (AlkB [8]; ss-m1A)?
A: 0.07 ± 0.0033 s⁻¹

Q: What about the Km (AlkB [8]; ss-m3C) of the same compound?
A: 19.9 ± 1.3 µM

Q: What about the kcat (AlkB [8]; ss-m3C) of the same compound?
A: 0.408 ± 0.012 s⁻¹
